In ChEMBL document CHEMBL5126521, “Analgesic Opioid Ligand Discovery Based on Nonmorphinan Scaffolds Derived from Natural Sources” (J Med Chem, 2022):
Bridge positions count the residues as written; N and C are the ends. Square brackets hold non-standard residues; d marks the D form. Peptide text beside a SMILES is read from it. ξ: configuration not given here. ξGly(octyl) = CCCCCCCCC(N)C(=O)O

Columns and labels:
Rattus norvegicus [1] = assay: Antinociceptive activity in Sprague-Dawley rat assessed as tail flick response in warm water administered iv; assay type: functional
Mu-type opioid receptor [2] = biological target: T1, Mu-type opioid receptor (Homo sapiens, UniProt P35372); assay: Agonist activity at MOP in human SH-SY5Y cells assessed as forskolin stimulated cAMP accumulation incubated for 30 mins by Biotrak-EIA kit method; assay type: functional, cell-based
Mu-type opioid receptor [3] = biological target: Mu-type opioid receptor (Rattus norvegicus, UniProt P33535); assay: Inhibition of Wistar rat brain membrane MOP; assay type: cell membranes
[4] = biological target: Delta-type opioid receptor (Rattus norvegicus, UniProt P33533); assay: Inhibition of Wistar rat brain membrane DOP; assay type: cell membranes
[5] = biological target: T2, Kappa-type opioid receptor (Rattus norvegicus, UniProt P34975); assay: Inhibition of Wistar rat brain membrane KOP; assay type: cell membranes
Mus musculus [6] = assay: Antinociceptive activity in Swiss albino mouse assessed tail flick response in warm water administered icv; assay type: functional
Mu-type opioid receptor [7] = biological target: T1, Mu-type opioid receptor; assay: Agonist activity at human recombinant MOP expressed in CHO cells by calcium mobilization assay; assay type: functional, cell-based
Rattus norvegicus [8] = assay: Antinociceptive activity in Sprague-Dawley rat assessed as tail flick response in warm water administered icv; assay type: functional
Mu-type opioid receptor [9] = biological target: T1, Mu-type opioid receptor; assay: Displacement of [3H]DAMGO from human MOP expressed in CHO-K1 cell membrane incubated for 60 mins by Microscint-counting analysis; assay type: cell membranes
Mu-type opioid receptor [10] = biological target: T1, Mu-type opioid receptor; assay: Agonist activity at human MOP expressed in CHO-K1 cell membrane assessed as [35S]GTPgammaS binding; assay type: functional, cell membranes
Mu-type opioid receptor [11] = biological target: T1, Mu-type opioid receptor; assay: Agonist activity at human MOP expressed in CHO-K1 cell membrane assessed as [35S]GTPgammaS binding relative to control; assay type: functional, cell membranes; conditions: filed as agonist
[12] = biological target: T3, Delta-type opioid receptor (Homo sapiens, UniProt P41143); assay: Displacement of [3H]DPDPE from human DOP expressed in CHO-K1 cell membrane incubated for 60 mins by Microscint-counting analysis; assay type: cell membranes
[13] = Stability in rat brain homogenate assessed as half life; assay type: ADME, tissue-based
[14] = Degradation half life in rat brain homogenate; assay type: ADME, tissue-based
[15] = Stability in rat brain homogenate assessed as compound remaining measured after 90 mins relative to control; assay type: ADME, tissue-based; conditions: read-out: Stability
[16] = Stability in mouse serum assessed as half life; assay type: ADME, cell-free
Mus musculus [17] = assay: Antinociceptive activity in Kunming mouse assessed as heat paw withdrawal measured after 10 secs administered icv; assay type: functional; conditions: time 10 sec, 10 s
[18] = biological target: T3, Delta-type opioid receptor; assay: Binding affinity to DOP (unknown origin)
Mu-type opioid receptor [19] = biological target: T1, Mu-type opioid receptor; assay: Binding affinity to MOP (unknown origin)
[20] = biological target: T2, Kappa-type opioid receptor; assay: Displacement of [3H]diprenorphine from rat KOP stably expressed in CHO cell membrane; assay type: cell membranes
Mus musculus [21] = assay: Antinociceptive activity in icv dosed C57BL/6J mouse assessed as tail withdrawal latency from warm water; assay type: functional
[22] = biological target: T4, Kappa-type opioid receptor (Homo sapiens, UniProt P41145); assay: Antagonist activity at human KOP stably expressed in CHO cell membrane assessed as [35S]GTPgammaS binding; assay type: functional, cell membranes
Mu-type opioid receptor [23] = biological target: T1, Mu-type opioid receptor; assay: Antagonist activity at human MOP stably expressed in CHO cell membrane assessed as [35S]GTPgammaS binding; assay type: functional, cell membranes
Mus musculus [24] = assay: Antinociceptive activity in ip dosed mouse assessed as tail flick latency; assay type: functional
[25] = biological target: T3, Delta-type opioid receptor; assay: Displacement of [3H]DPDPE from DOP (unknown origin) stably expressed in CHO cell membrane incubated for 90 mins by scintillation counter analysis; assay type: cell membranes
Mu-type opioid receptor [26] = biological target: T1, Mu-type opioid receptor; assay: Displacement of [3H]DAMGO from MOP (unknown origin) stably expressed in CHO cell membrane incubated for 90 mins by scintillation counter analysis; assay type: cell membranes
[27] = biological target: T4, Kappa-type opioid receptor; assay: Displacement of [3H]diprenorphine from KOP (unknown origin) stably expressed in CHO cell membrane incubated for 90 mins by scintillation counter analysis; assay type: cell membranes
Mus musculus [28] = species on record: Mus musculus; assay: Antinociceptive activity in mouse by tail pressure test; assay type: functional; conditions: Mus musculus; read-out: ED50
Mu-type opioid receptor [29] = biological target: Mu-type opioid receptor (Cavia porcellus, UniProt P97266); assay: Antagonist activity at guinea pig ileum MOP; assay type: functional, tissue-based
Mus musculus [30] = assay: Antinociceptive activity in mouse administered icv; assay type: functional
Mus musculus [31] = assay: Antinociceptive activity in po dosed C57BL/6J mouse assessed as tail withdrawal latency from warm water; assay type: functional
[32] = biological target: Delta-type opioid receptor (Mus musculus, UniProt P32300); assay: Displacement of [3H]DPDPE from mouse DOP stably expressed in CHO cell membrane; assay type: cell membranes
[33] = biological target: T4, Kappa-type opioid receptor; assay: Binding affinity to human KOP stably expressed in CHO cell membrane assessed as [35S]GTPgammaS binding; assay type: cell membranes; conditions: filed as antagonist
[34] = Toxicity in icv dosed C57BL/6J mouse assessed as antinociceptive activity tolerance; assay type: organism-based; conditions: in vivo, icv_or_intrathecal
[35] = Half life in mouse liver microsomes; assay type: ADME, Microsome

T1 sequence (P35372 whole entry): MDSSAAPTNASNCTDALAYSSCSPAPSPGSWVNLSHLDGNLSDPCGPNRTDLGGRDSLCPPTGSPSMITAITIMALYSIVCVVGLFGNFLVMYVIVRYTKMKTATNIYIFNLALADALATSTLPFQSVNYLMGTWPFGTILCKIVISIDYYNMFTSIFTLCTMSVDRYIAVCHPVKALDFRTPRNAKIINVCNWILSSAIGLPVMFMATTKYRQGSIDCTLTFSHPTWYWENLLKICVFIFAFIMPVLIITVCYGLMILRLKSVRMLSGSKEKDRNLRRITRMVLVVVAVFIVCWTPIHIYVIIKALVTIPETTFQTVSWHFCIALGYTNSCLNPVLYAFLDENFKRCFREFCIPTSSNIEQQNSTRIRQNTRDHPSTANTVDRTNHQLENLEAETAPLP
T4 sequence (P41145 whole entry): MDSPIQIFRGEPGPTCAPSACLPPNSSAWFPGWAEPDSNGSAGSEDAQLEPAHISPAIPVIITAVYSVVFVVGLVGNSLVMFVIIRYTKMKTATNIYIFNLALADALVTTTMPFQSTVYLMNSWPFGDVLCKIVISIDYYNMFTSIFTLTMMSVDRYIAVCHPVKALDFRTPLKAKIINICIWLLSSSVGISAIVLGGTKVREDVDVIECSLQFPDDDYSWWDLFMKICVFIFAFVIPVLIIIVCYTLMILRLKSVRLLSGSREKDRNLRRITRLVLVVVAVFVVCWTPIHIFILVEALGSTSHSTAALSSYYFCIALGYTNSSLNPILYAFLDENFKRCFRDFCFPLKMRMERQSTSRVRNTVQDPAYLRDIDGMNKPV
T2 sequence (P34975 whole entry): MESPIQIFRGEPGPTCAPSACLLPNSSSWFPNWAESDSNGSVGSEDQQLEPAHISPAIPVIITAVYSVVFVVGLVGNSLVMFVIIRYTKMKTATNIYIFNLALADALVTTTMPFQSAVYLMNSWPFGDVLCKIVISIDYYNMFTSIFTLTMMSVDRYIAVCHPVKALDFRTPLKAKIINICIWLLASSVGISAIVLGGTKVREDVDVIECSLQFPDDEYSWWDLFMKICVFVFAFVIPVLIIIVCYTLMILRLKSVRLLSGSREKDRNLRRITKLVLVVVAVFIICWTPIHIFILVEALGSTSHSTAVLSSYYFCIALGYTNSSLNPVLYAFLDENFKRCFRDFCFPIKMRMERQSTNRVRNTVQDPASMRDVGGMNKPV
T3 sequence (P41143 whole entry): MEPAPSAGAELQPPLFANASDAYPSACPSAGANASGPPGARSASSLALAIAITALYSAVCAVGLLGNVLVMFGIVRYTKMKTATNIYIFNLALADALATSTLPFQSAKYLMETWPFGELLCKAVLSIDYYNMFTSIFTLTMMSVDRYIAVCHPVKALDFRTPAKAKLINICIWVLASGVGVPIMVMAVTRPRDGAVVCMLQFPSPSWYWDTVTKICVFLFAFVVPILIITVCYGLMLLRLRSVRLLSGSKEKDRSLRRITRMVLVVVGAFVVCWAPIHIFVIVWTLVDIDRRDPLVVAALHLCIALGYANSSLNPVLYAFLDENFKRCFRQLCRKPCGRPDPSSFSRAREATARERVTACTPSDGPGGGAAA
Chain of Delta-type opioid receptor (Mus musculus, UniProt P32300) (P32300 whole entry): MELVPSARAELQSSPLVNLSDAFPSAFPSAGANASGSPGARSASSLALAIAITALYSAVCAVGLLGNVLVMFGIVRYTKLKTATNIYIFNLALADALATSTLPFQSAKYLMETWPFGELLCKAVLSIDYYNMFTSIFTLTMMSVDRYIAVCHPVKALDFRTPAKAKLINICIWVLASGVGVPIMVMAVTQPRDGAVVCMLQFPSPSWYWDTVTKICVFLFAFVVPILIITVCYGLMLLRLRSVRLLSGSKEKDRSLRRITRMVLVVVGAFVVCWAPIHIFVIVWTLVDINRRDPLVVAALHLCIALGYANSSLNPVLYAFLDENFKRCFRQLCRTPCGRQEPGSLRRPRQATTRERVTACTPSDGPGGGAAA
Chain of Mu-type opioid receptor (Rattus norvegicus, UniProt P33535) (P33535 whole entry): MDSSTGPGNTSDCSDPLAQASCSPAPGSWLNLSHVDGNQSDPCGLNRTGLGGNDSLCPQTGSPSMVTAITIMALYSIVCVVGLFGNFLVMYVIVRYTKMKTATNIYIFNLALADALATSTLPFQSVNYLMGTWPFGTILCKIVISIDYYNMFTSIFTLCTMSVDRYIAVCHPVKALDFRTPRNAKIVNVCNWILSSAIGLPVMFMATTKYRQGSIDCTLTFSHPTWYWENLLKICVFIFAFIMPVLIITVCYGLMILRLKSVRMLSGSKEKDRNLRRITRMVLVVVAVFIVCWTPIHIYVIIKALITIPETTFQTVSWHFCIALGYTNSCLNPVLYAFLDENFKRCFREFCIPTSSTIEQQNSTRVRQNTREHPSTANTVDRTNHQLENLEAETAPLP
Chain of Delta-type opioid receptor (Rattus norvegicus, UniProt P33533) (P33533 whole entry): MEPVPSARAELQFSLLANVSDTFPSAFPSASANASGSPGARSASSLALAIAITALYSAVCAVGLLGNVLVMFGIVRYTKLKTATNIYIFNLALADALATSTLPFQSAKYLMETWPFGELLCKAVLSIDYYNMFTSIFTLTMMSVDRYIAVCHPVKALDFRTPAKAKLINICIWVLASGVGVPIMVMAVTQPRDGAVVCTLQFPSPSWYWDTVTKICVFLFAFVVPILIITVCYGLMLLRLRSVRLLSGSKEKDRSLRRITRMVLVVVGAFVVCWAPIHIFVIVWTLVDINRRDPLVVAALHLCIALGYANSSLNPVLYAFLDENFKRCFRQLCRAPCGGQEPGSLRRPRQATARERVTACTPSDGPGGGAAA
Chain of Mu-type opioid receptor (Cavia porcellus, UniProt P97266) (P97266 whole entry): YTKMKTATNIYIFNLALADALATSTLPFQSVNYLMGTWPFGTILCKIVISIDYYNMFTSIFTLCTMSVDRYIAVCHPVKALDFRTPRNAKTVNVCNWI

## CCCCCCCCC(N)C(=O)N[C@@H](Cc1ccc(O)cc1)C(=O)N1CCC[C@H]1C(=O)N[C@@H](Cc1c[nH]c2ccccc12)C(=O)N[C@@H](Cc1ccccc1)C(N)=O (stereo not given in full) (H-[ξGly(octyl)]YPWF-NH2)
Rattus norvegicus [1]
  ED50: 1.2 µmol/kg
Mu-type opioid receptor [2]
  EC50: 31.4 nM

## CCNC(=O)C[C@H](NC(=O)[C@H](Cc1ccccc1)NC(=O)[C@H](Cc1ccccc1)NC(=O)[C@@H](CCCCNC(=O)C[C@H](NC(=O)[C@H](Cc1ccccc1)NC(=O)[C@H](Cc1ccccc1)NC(=O)CNC(=O)[C@@H](N)Cc1ccc(O)cc1)C(N)=O)NC(=O)[C@@H](N)Cc1ccc(O)cc1)C(N)=O
Mu-type opioid receptor [3]
  IC50: 26.2 nM
[4]
  IC50: > 1000 nM
[5]
  IC50: 32 nM
Mus musculus [6]
  ED50: 1.96 nmol
Mu-type opioid receptor [7]
  EC50: 5.01 nM

## NC(=O)[C@@H]1CCC(=O)NCCCC[C@@H](NC(=O)[C@@H](N)Cc2ccc(O)cc2)C(=O)N[C@@H](Cc2c[nH]c3ccccc23)C(=O)N[C@@H](Cc2ccccc2)C(=O)N1
Rattus norvegicus [8]
  ED50: 0.021 nmol
Mu-type opioid receptor [9]
  Ki: 0.63 nM
Rattus norvegicus [1]
  ED50: 2.2 mg/kg
Mu-type opioid receptor [10]
  EC50: 0.43 nM
Mu-type opioid receptor [11]
  Emax: 100%
[12]
  Ki: 83 nM

## NC(=O)[C@H](Cc1ccccc1)NC(=O)[C@H](Cc1ccccc1)NC(=O)[C@@H]1CCCN1C(=O)[C@@H](N)Cc1ccc(O)cc1 [ENDOMORPHIN 2]
[13]
  half-life: 15.9 min
[14]
  half-life: 0.75 min
[15]
  remaining at […]: 0%
Mus musculus [6]
  ED50: 6.88 nmol
[16]
  half-life: 8.2 min

## CC(C)(C)OC(=O)[C@H](Cc1ccccc1)NC(=O)[C@H](Cc1ccccc1)NC(=O)[C@@H]1CCCN1C(=O)[C@@H](N)Cc1ccc(O)cc1
[13]
  half-life: 72.2 min
Mus musculus [17]
  ED50: 3.2 nmol
[18]
  Ki: 247 nM
Mu-type opioid receptor [19]
  Ki: 50.3 nM
[16]
  half-life: 46 min

## C[C@@H]1NC(=O)[C@@H](Cc2c[nH]c3ccccc23)NC(=O)[C@H](Cc2ccccc2)NC(=O)[C@H]2CCCN2C1=O
[20]
  Ki: 3.07 nM
Mus musculus [21]
  ED50: 1.99 nmol
[22]
  IC50: 0.81 nM
Mu-type opioid receptor [23]
  IC50: 8.08 nM

## Cc1cc(O)cc(C)c1C[C@H](N)C(=O)N1Cc2ccccc2C[C@H]1C(=O)N[C@@H](Cc1ccccc1)[C@@H](O)C(=O)N[C@@H](Cc1ccccc1)C(N)=O
[14]
  half-life: 120 min

## COC(=O)[C@@H]1C[C@H](O[C@@H]2CCCCO2)C(=O)[C@H]2[C@@]1(C)CC[C@H]1C(=O)O[C@H](c3ccoc3)C[C@]21C
Mus musculus [24]
  ED50: 1.4 mg/kg

## C[C@@H]1NC(=O)[C@H](Cc2c[nH]c3ccccc23)NC(=O)[C@H](Cc2ccccc2)NC(=O)[C@H]2CCCN2C1=O
[25]
  Ki: 8.68 µM
Mu-type opioid receptor [26]
  Ki: 32.2 nM
Mus musculus [21]
  ED50: 1.49 nmol
[27]
  Ki: 8 nM

## N=C(N)NCCC[C@@H](NC(=O)[C@@H](N)Cc1ccc(O)cc1)C(=O)N[C@@H](Cc1ccccc1)C(=O)NCC(=O)N[C@@H](Cc1ccc(O)cc1)C(=O)N1CCC[C@H]1C(=O)N[C@@H](CO)C(N)=O
Mus musculus [28]
  ED50: 3.5 mg/kg
Mu-type opioid receptor [29]
  IC50: 90 nM
Mus musculus [30]
  ED50: 23 pmol

## NC(=O)[C@@H]1CC(=O)NCCCC[C@@H](NC(=O)[C@@H](N)Cc2ccc(O)cc2)C(=O)N[C@@H](Cc2c[nH]c3ccccc23)C(=O)N[C@@H](Cc2ccccc2)C(=O)N1
Rattus norvegicus [8]
  ED50: 0.2 nmol
Mu-type opioid receptor [9]
  Ki: 0.49 nM
Mu-type opioid receptor [10]
  EC50: 0.94 nM
Mu-type opioid receptor [11]
  Emax: 100%
[12]
  Ki: 83 nM

## O=C1N[C@H](Cc2c[nH]c3ccccc23)C(=O)N[C@@H](Cc2ccccc2)C(=O)N2CCC[C@@H]2C(=O)N[C@H]1Cc1ccccc1
Mus musculus [31]
  ED50: 60 mg/kg
[32]
  Ki: 4.19 µM
[33]
  Kb: 20.2 nM

## O=C1N[C@H](Cc2ccccc2)C(=O)N[C@H](Cc2c[nH]c3ccccc23)C(=O)N[C@@H](Cc2ccccc2)C(=O)N2CCC[C@H]12
Mus musculus [31]
  ED50: 4.72 mg/kg
[34]
  ED50: 0.49 nmol
Mus musculus [21]
  ED50: 0.56 nmol
[35]
  half-life: ≤ 30 min

## NC(=O)[C@@H]1CC(=O)NCCCC[C@@H](NC(=O)[C@@H](N)Cc2ccc(O)cc2)C(=O)N[C@@H](Cc2ccccc2)C(=O)N[C@@H](Cc2ccccc2)C(=O)N1 (H-Y[dK]FFD-NH2; lactam 2-5)
[5]
  IC50: 2.36 nM
Mus musculus [6]
  ED50: 0.06 nmol

## C[C@H]1NC(=O)[C@H](Cc2ccccc2)NC(=O)[C@H]2CCCN2C(=O)[C@H](Cc2ccccc2)NC1=O
[20]
  Ki: 1720 nM
Mus musculus [21]
  ED50: 0.28 nmol
[22]
  IC50: 922 nM
[32]
  Ki: 10 µM
Mu-type opioid receptor [23]
  IC50: 1100 nM
